Data reported in patent US20040037775A1, “Leukocyte internalized peptide-drug conjugates” (priority 2000, published 2004).
Read-outs that look alike come from different tables or passages of the source. Starred links: 1 amine or outer side, 2 acyl side, 3 side chain; linkers in the order of their positions; H or OH if unused. Positions of bridges follow the written chain, without caps; N, C: chain ends. Non-standard residues stand in square brackets, D forms with d. Residues, ends and D or L forms follow the SMILES beside them. *: point of attachment. DAMPA = CN(Cc1cnc2nc(N)nc(N)c2n1)c1ccc(C(=O)*)cc1; γGlu = O=C(O)[C@H](CCC(=O)[*:2])N[*:1]; Pen = CC(C)(S)[C@H](N)C(=O)O

Key:
LFA-1 = molecular target: T1, LFA-1 (Homo sapiens, UniProt P20701); experiment: binding to LFA-1 on Molt-3 T-cells (reduction of FITC anti-CD11a antibody binding, flow cytometry); settings: 1, 10 or 100 μM, 45 min, 4° C.
T1 construct: endogenous in cells
T1 sequence (P20701 26-1170): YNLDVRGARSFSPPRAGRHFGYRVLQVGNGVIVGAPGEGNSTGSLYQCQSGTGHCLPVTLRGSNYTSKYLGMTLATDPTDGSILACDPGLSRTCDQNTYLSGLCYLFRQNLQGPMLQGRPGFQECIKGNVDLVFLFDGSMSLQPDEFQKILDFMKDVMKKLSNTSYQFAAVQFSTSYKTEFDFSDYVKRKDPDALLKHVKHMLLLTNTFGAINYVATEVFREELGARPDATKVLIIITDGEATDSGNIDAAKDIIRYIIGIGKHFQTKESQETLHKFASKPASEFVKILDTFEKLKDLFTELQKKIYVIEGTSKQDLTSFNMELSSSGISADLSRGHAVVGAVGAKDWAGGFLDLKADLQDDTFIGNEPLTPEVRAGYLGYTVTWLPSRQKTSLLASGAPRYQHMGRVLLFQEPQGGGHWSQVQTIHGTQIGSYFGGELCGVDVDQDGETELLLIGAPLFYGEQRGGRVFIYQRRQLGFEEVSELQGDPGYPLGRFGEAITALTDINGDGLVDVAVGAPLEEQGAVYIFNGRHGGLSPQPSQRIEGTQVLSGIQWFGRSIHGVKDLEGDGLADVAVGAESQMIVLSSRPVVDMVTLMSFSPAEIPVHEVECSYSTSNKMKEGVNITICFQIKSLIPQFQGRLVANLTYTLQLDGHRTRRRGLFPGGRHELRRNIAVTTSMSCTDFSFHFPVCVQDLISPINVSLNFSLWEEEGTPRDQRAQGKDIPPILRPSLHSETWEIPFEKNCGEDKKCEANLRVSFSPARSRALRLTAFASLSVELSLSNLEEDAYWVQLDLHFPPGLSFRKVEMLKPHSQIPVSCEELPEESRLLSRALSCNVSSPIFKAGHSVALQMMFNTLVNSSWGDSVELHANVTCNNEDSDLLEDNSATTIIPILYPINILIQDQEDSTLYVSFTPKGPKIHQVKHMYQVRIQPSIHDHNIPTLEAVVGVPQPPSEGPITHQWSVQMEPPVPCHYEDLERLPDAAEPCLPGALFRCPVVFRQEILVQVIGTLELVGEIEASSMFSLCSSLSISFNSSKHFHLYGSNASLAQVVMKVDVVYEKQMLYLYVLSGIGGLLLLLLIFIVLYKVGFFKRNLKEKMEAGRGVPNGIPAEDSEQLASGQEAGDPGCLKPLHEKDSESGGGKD
T1 sequence (P05107 23-769 partner): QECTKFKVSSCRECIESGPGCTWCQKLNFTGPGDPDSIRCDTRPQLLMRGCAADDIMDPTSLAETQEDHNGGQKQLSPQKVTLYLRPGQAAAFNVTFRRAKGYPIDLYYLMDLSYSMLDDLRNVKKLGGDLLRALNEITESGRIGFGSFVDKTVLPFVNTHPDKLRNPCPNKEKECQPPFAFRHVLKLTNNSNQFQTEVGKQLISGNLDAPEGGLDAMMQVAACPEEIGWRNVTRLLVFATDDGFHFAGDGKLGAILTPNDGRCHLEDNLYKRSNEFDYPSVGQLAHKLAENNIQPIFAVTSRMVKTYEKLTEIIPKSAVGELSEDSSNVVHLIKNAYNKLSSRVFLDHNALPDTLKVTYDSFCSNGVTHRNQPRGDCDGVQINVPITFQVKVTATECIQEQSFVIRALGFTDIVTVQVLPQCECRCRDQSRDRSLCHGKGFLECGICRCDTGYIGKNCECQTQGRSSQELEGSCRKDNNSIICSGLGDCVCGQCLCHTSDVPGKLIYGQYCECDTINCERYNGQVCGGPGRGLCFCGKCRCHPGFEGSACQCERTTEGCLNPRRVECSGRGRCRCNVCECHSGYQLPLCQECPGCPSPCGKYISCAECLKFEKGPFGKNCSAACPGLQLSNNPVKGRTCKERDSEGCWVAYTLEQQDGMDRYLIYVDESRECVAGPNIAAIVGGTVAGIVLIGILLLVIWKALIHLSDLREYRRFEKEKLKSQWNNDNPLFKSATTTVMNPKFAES
Description: The binding of MTX-peptide conjugates to LFA-1 in response to LFA-1 activation was evaluated. As necessary, cells were activated with 10% v/v phorbol 12-myristate-13-acetate (PMA) containing medium to a final concentration of 2 μM PMA and incubated for 16 h. […] T-cells were centrifuged for 3 min at 1800 rpm, the supernatant was decanted by flicking off excess liquid, and the cells were re-suspended in 500 μL of PBS. The cells were then re-centrifuged, supernatant was removed, and cells were re-suspended again in 150 μL of PBS/BSA 1%. Next, 50 μL of an FITC-labeled anti-CD11a antibody (clone 38, 10 μg/L) was added and incubated for 45 min at 4° C. followed by washing. After the 45 min of incubation with FITC-labeled antibody, cell samples were transferred to Eppendorf tubes and centrifuged at 3000 g for 3 min. The supernatant was decanted, and the pellet was washed twice with 10 mM HEPES/PBS. The cells were then fixed with ice-cold 2% w/v paraformaldehyde/PBS for 20 min. Samples were analyzed using a Becton-Dickinson FACScan flow cytometer with 3.2.1 fl software for data analysis and acquisition.

KB epithelial cells = experiment: KB MTT assay (96 h); type: cell-based, human
Description: Human KB epithelial l cells: The human KB epithelial cell line was a gift from Dr Gerrit Jansen (University Free Hospital, Amsterdam, Netherlands) and was developed to overexpress the membrane folate binding protein (mFBP). Cells were cultured in RPMI 1640 medium without folic acid and supplemented with 10% heat inactivated dialyzed FCS (50 mL volume), 0.2 mL of 50 μg/mL gentamicin, 1 mL of 50 μg/mL amphotericin B, and 5 mL of 200 mM L-glutamine. The folate source, 20 nM (R,S)-LV, was added to supply cells with adequate growth conditions.
The cytotoxicity of MTX-peptide conjugates was evaluated in different cell lines, lincluding Molt-3 and L1210 T-cells, and KB epithelial cells. […] After 72 h of growth, the relative numbers of viable cells were determined according to the manufacture's protocols for measuring cytotoxicity using a Dojindo Cytotoxicity Assay Cell counting Kit-8 (CCK-8). To measure the cell viability, 10 μL of CCK-8 was added to each well and the plate was incubated for 4 h. After incubation, the absorbance at 450 nm was measured using a UV plate reader. Cell growth in the presence of different drug concentrations was calculated relative to the value obtained in the absence of the drug. […] Growth inhibition was determined by counting the cells on a Z2 model Coulter Counter (Coulter Electronics Ltd, Luton, Beds, UK). The IC50 values were calculated using Graphpad Prism software (Graphpad Software, San Diego, Calif.). […] Cells were incubated for 96 h to allow control cells to divide approximately four times before cell viability was determined by MTT assay.
The number of viable cells after a 96-h incubation was determined by assessing their ability to reduce MTT ([…]). […] The absorbance of the solution in each well was measured at 540 nm on a MCC/340 model Titertak Multiscan® plate reader (Labsystems/Flow Laboratories, Oxfordshire, UK). The results were analyzed using Ascent Research software v.2.1 (Labsystems, UK).

Thymidine synthase (TS) = molecular target: T2, Thymidine synthase (TS) (Mus musculus, UniProt P07607); type: cell-based
T2 construct: endogenous in cells; host or cells: L1210-1565 mouse leukemia cells
T2 sequence (P07607 whole entry): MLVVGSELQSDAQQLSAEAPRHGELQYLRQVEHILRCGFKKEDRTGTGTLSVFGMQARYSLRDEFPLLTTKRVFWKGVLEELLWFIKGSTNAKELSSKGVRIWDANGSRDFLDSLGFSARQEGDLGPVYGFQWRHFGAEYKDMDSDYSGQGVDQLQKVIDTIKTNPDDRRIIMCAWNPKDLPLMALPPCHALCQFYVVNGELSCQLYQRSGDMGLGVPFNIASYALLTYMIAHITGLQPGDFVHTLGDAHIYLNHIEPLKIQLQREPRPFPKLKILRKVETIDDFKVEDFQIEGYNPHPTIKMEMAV
Description: An equivalent amount of unsupplemented medium was added to control flasks. On the day of each experiment, a fresh solution of unlabelled deoxyuridine (dUrd) was prepared in deionized H2O (dH2O) and was added to a stock solution of [5-^3H]-dUrd (22 Ci/mmole) to give a concentration of 300 μM and a specific activity of 3.3 Ci/mmole (˜7260 dpm/pmole).
To begin the assay, the 300 μM [5-^3H]-dUrd stock solution was diluted ten fold in deionized H2O and 50 μL of this solution was added to each culture flask to give a final concentration of 0.03 μM. The rate of ^3H2O formation was measured over a 1 h period (20, 40 and 60 min) by removing a 3×0.4 mL aliquot of the cells in culture medium and mixing it with 0.4 mL of ice-cold 1.0 M perchloric acid (PCA; Sigma) in microfuge tubes. […] For each time point, radioactivity was determined by counting each vial on the tritium channel of a Tri-Carb 2000CA Model Liquid Scintillation Analyzer (Canberra Packard, Pangbourne, Berkshire, UK). Background radioactivity was assessed by cooling a flask of untreated cells on ice before the start of each experiment and adding 50 mL of the [5-^3H]-dUrd solution. Aliquots of 3×0.4 mL aliquots of cells in culture medium were added to 1.0 M PCA-containing microfuge tubes and the rate of ^3H2O release was analyzed as described above. […]

[1] = tested on: L1210 mouse leukemia cells; experiment: cells; type: cell-based
Description: (§1) The cytotoxicity of MTX-peptide conjugates was evaluated in different cell lines, lincluding Molt-3 and L1210 T-cells, and KB epithelial cells. […] After 72 h of growth, the relative numbers of viable cells were determined according to the manufacture's protocols for measuring cytotoxicity using a Dojindo Cytotoxicity Assay Cell counting Kit-8 (CCK-8). To measure the cell viability, 10 μL of CCK-8 was added to each well and the plate was incubated for 4 h. After incubation, the absorbance at 450 nm was measured using a UV plate reader. Cell growth in the presence of different drug concentrations was calculated relative to the value obtained in the absence of the drug. […] Serial dilutions of compounds were prepared in un-supplemented medium, and 110 μL of drug solution was aliquoted in duplicate into 900 μL cell suspensions. Control flasks were treated with 110 μL of un-supplemented medium. Cells were incubated under standard conditions for 48 h, sufficient to allow control cells to divide approximately four times. Growth inhibition was determined by counting the cells on a Z2 model Coulter Counter (Coulter Electronics Ltd, Luton, Beds, UK). The IC50 values were calculated using Graphpad Prism software (Graphpad Software, San Diego, Calif.). KB MTT Assay: KB cells were seeded in Falcons® 96 well plates (Becton-Dickinson Labware Europe, France) at a density of 1,500 cells/well in a volume of 0.18 mL culture medium and incubated under standard culture conditions for 24 h after seeding to allow entry into the exponential phase of cell growth. […] In each assay condition, control cells were treated with 20 μL of un-supplemented medium instead of drug. Cells were incubated for 96 h to allow control cells to divide approximately four times before cell viability was determined by MTT assay.

[2] = tested on: collagen induced rheumatoid arthritis (CIA); experiment: collagen induced rheumatoid arthritis (CIA) animal model; type: in vivo, mice; settings: for mice showing signs of joint eburnation: histopathologic examination; for Total joint damage (TJD): sum of histopathology scores (0 to 3) for each limb; for arthritis index score for the limb: i.v. once daily after day 35
Description: […] received intravenous injections of saline while another treatment group received MTX injections (molar equivalent dosage to conjugate) for five days. Clinical arthritis symptoms were evaluated weekly for up to sixteen weeks. Arthritis development was evaluated by several parameters, including the percent of animals acquiring arthritis, arthritis index (AI) score of limbs, changes in paw-volumes and histologic score for the joint.
Mice injected with collagen adjuvant developed pronounced inflammation of the joints, as evidenced by swelling and erythema. […] Total joint damage (TJD) was calculated as the sum the scores for each limb assigned by the pathologist on a scale of 0 to 3 (where 0 is no change and 3 is gross histological change).

Molt-3 T-cells = experiment: cells; type: cell-based, human
Description: as §1

L1210-1565 cells = experiment: cell cycle analysis in L1210-1565 cells (PI staining, flow cytometry); type: cell-based, mouse; settings: 1 μM
Description: The cell pellets were resuspended and fixed in 2.5 mL of ice-cold 70% ethanol. These pellets were stored at 4° C. before analysis using flow cytometry.
PI staining of fixed cell pellets for cell cycle analysis: One day prior to analysis, cells were centrifuged at 450×g (2500 rpm) for 5 min at room temperature and the pellets re-suspended in 0.8 mL PBS followed by addition of 0.1 mL each of 1 mg/mL ribonuclease A (RNase A; Sigma) and 0.4 mg/mL PI (Sigma). RNA digestion by RNase A is required to avoid the intercalation of PI into the double-stranded regions of this nucleic acid, which interfers with the measurement of DNA. After a 30 min incubation at 37° C., samples were wrapped in aluminum foil and stored at 4° C. overnight. Cell cycle analysis was performed using a Coulter EPICS Elite ESP (Beckman Coulter, Buckinghamshire, UK) equipped with an argon-ion laser tuned to 488 nm and red fluorescence collected at 630 nm. DNA histograms were produced and analyzed using the Winmidi software package (v.2.8, written by J.Trotter, University of Cardiff, UK).

[3] = tested on: dihydrofolate reductase enzyme (DHFR); experiment: DHFR inhibition assay (spectrophotometric NADPH loss, Dixon plots); type: biochemical; settings: for Ymax: from Dixon plots
Description: Into a 2.0 mL cuvette, a 1.0 mL solution of 0.11 mM β-NADPH and 33 μL of 2.3 mM DHFA were aliquoted and allowed to equilibrate. […] To begin the assay, 33 μL of DHFR (0.12-0.25 unit/mL with 0.1% BSA) was added to the reaction mixture. The absorbance of the reaction mixture was then recorded continuously for 5 min at 340 nm and the enzyme activity was determined by the rate of NADPH loss. Enzyme activity was determined for three different fixed concentrations of substrate (0.19, 1.9 and 10.0 mM DHFA).

IL-6 production = IL-6 production in TNF-α stimulated HCAEC monolayers; type: cell-based; settings: 0.001-100 μM, 24 h
Description: The cell monolayers were cultured in vitro with the test compounds (0.001 to 100 μM) in the presence of TNF-α for 24 h. Results are expressed as the percentage of cytokine relative to the positive control or non-treated monolayers (the baseline 100% cytokine production. The control levels (mean±SE) were as follows: IL-6: 3.4±0.17 ng/mL, IL-8: 199.5±9.13 ng/mL.
It is well known that some anti-inflammatory agents can modulate the secretion of inflammatory cytokines. […] MTX-peptide(s) only begins to effectively reduce the IL-8 production at ≧0.1 μM. At ≦1 μM, neither cLAB.L nor cLBE.L affected the IL-8 production (FIG. 8B).

SMILES	binding to the LFA-1 receptor (LFA-1)	IC50 (KB epithelial cells) [nM]	ability to inhibit TS after wash-out (Thymidine synthase (TS))	inhibition of 3H2O production by TS, continuous exposure (Thymidine synthase (TS); 3 μM, 4 h incubation)	IC50 ([1]; 48 h) [nM]	mice showing signs of joint eburnation [2] [%]	Total joint damage (TJD) [2]	arthritis index score for the limb ([2]; week 8)	arthritis index score for the limb ([2]; week 12)	IC50 (Molt-3 T-cells; 72 h) [nM]	time of treatment after which arrest of cells in S phase was seen (L1210-1565 cells) [h]	Km relative to that of MTX [3] [fold]	Ymax [3]	IC50 (KB epithelial cells; Homo sapiens, Epithelial cell) [nM]	IC50 ([1]; Mus musculus, L1210, 48 h, read-out: IC50 L1210 mouse leukemia cells) [nM]	block of IL-6 production (IL-6 production)	IC50 (Molt-3 T-cells; Homo sapiens, MOLT-3, 72 h, read-out: IC50 Molt-3 T-cells) [nM]
CC(C)C[C@@H]1NC(=O)[C@H](C(C)C)NC(=O)[C@H](CO)NC(=O)CNC(=O)CNC(=O)[C@H](CCCNC(=N)N)NC(=O)[C@@H]2CCCN2C(=O)[C@@H](NC(=O)CC[C@H](NC(=O)c2ccc(N(C)Cc3cnc4nc(N)nc(N)c4n3)cc2)C(=O)O)C(C)(C)SSC[C@@H](C(=O)O)NC(=O)CNC(=O)[C@H]([C@@H](C)O)NC(=O)[C@H](C(C)C)NC1=O [MTX-cIBR] ({DAMPA-γGlu}-[Pen]PRGGSVLVTGC-OH; disulfide 1-12)	specific to the LFA-1 receptor	> 10000	retained more activity than the linear conjugate	inhibited to a similar degree	5500 ± 2000	10	4.4±2.1	two	zero	2750 ± 800	36	~15	4.10 ± 0.18 × 10^−4				
CN(Cc1cnc2nc(N)nc(N)c2n1)c1ccc(C(=O)N[C@@H](CCC(=O)O)C(=O)O)cc1 [MTX, methotrexate, reference compound]						44	7.4±2.5				24		4.30 ± 0.42 × 10^−4	27	14 ± 4	partly block the production of IL-6	61 ± 20
